Assay results from ChEMBL document CHEMBL1687884, “Mirabamides E-H, HIV-inhibitory depsipeptides from the sponge Stelletta clavosa” (J Nat Prod, 2011).
Numbered stars: 1 amine (or outer) side, 2 acyl side, 3 side chain; on linkers, the order of the positions; unused ones are H or OH. Bridge positions count the residues as written; N and C are the ends. Square brackets hold non-standard residues; d marks the D form. Peptide text beside a SMILES is read from it. * marks the point of attachment. dLeu(3R-OH) = CC(C)[C@@H](O[*:3])[C@@H](N[*:1])C(=O)[*:2]; Gln(3S,4R-Me2) = C[C@H]([C@H](N)C(=O)O)[C@@H](C)C(N)=O; dTyr(βR-OMe) = CO[C@H](c1ccc(O)cc1)[C@@H](N)C(=O)O; Pip(4S-Cl) = O=C(O)[C@@H]1C[C@@H](Cl)CCN1; X1 = CCC(C)/C=C(C)/C=C\C(O)C(C)(O)C(=O)*; Abu(3R-NH2) = C[C@@H](N)[C@H](N)C(=O)O; NMeT = CN[C@H](C(=O)O)[C@@H](C)O

System: Human immunodeficiency virus 1
Test: Inhibition of HIV1 isolate YU2 infected in human TZM-bl cells expressing CD4 and CCR5 assessed as assessed inhibition of viral entry after 24 hrs by luciferase reporter assay
Assay type: functional, organism-based
Conditions: Human immunodeficiency virus 1, isolate YU2, TZM-bl

Work on `CCC(C)/C=C(C)/C=C\C(O)C(C)(O)C(=O)NCC(=O)N[C@H](C(=O)N[C@H](C(=O)N[C@H](C(=O)N[C@H]1C(=O)N[C@H](COC)C(=O)NCC(=O)N[C@@H](C)C(=O)N(C)[C@@H]([C@@H](C)O)C(=O)N[C@H]([C@H](OC)c2ccc(O)cc2)C(=O)N2CC[C@H](Cl)C[C@H]2C(=O)O[C@@H]1C(C)C)[C@@H](C)[C@@H](C)C(N)=O)[C@@H](C)N)[C@@H](C)O` (stereo partly drawn) [MIRABAMIDE C] (X1-GT[Abu(3R-NH2)][Gln(3S,4R-Me2)][dLeu(3R-OH)][dS](Me)GA[NMeT][dTyr(βR-OMe)][Pip(4S-Cl)]; ester 5-C) yielded an IC50 of 123 nM.
